Measurements reported in patent EP3860599B1, “(+)-ALPHA-DIHYDROTETRABENAZINE DOSAGE REGIMEN FOR TREATING MOVEMENT DISORDERS” (Adeptio Pharmaceuticals Limited, priority 2018, dated 2020).
Like-named read-outs stand apart in the source and are kept apart here.

Columns and labels:
[1] = test system: non-amphetamine induced rats; assay: Open field locomotor activity test in rats without amphetamine induction (Example 2, Study 3); type: in vivo; settings: 1 mg/kg
Experimental: (§1) All animal experiments were carried out according to the National Institute of Health (NIH) guidelines for the care and use of laboratory animals, and approved by the National Animal Experiment Board, Finland. Male CD (Charles River Laboratories, Germany) at weight range of 200-250 g (165-200 g upon arrival) were used for the experiments. Animals were housed at a standard temperature (22 ± 1°C) and in a light-controlled environment (lights on from 7 am to 8 pm) with ad libitum access to food and water.
(§2) Locomotor activity of the rats was tested in open field arena. The open field test was performed during the rat light cycle and under a normal lighting evenly distributed to the test chambers. The paths of the rats were recorded by activity monitor (Med. Associates Inc.).
(§3) Dosing the vehicle, vehicle-amphetamine, (+)-α-DHTBZ or risperidone was done prior to LMA test. The rats were placed in the centre of the arena, and the path was recorded for 60 minutes.
Animals were grouped as follows: • Group 1: 10 rats treated with Vehicle • Group 2: 10 rats treated with (+)-α-DHTBZ 2.5 mg/kg • Group 3: 10 rats treated with (+)-α-DHTBZ 5 mg/kg • Group 4: 10 rats treated with risperidone 1 mg/kg

amphetamine-induced rats = assay: Open field locomotor activity test in amphetamine-induced rats (Example 2, Studies 1, 2 and 4); type: in vivo; settings: 1 mg/kg
Experimental: as §1, §2, §3
Animals were grouped as follows: • Group 1: 10 rats treated with Vehicle (t= 0 min) and Vehicle (t= 30 min) • Group 2: 10 rats treated with Vehicle (t= 0 min) and Amphetamine (t= 30 min) • Group 3: 10 rats treated with (+)-α-DHTBZ 0.5 mg/kg (t=0 min) and Amphetamine (t= 30 min) • Group 4: 10 rats treated with (+)-α-DHTBZ 1 mg/kg (t=0 min) and Amphetamine (t= 30 min) • Group 5: 10 rats treated with (+)-α-DHTBZ 1.5 mg/kg (t=0 min) and Amphetamine (t= 30 min) • Group 6: 10 rats treated with (+)-α-DHTBZ 2 mg/kg (t=0 min) and Amphetamine (t= 30 min) • Group 7: 10 rats treated with risperidone 1 mg/kg (t=0 min) and Amphetamine (t= 30 min)
Animals were grouped as follows: • Group 1: 10 rats treated with Vehicle (t= 0 min) and Vehicle (t= 30 min) • Group 2: 10 rats treated with Vehicle (t= 0 min) and Amphetamine (t= 30 min) • Group 3: 10 rats treated with (+)-α-DHTBZ 0.1 mg/kg (t=0 min) and Amphetamine (t=30 min) • Group 4: 10 rats treated with (+)-α-DHTBZ 0.25 mg/kg (t=0 min) and Amphetamine (t=30 min) • Group 5: 10 rats treated with risperidone 1 mg/kg (t=0 min) and Amphetamine (t= 30 min)
Animals were grouped as follows: • Group 1: 10 rats treated with Vehicle (t= 0 min) and Vehicle (t= 30 min) • Group 2: 10 rats treated with Vehicle (t= 0 min) and Amphetamine (t= 30 min) • Group 3: 10 rats treated with (+)-α-DHTBZ 1 mg/kg (t=0 min) and Amphetamine (t=30 min) • Group 4: 10 rats treated with (+)-α-DHTBZ 1.5 mg/kg (t=0 min) and Amphetamine (t=30 min) • Group 5: 10 rats treated with Valbenazine 1 mg/kg (t=0 min) and Amphetamine (t=30 min) • Group 6: 10 rats treated with Valbenazine 1.5 mg/kg (t=0 min) and Amphetamine (t=30 min) • Group 7: 10 rats treated with risperidone 1 mg/kg (t=0 min) and Amphetamine (t= 30 min)

[2] = cited from earlier work; for symptoms scored with the abnormal involuntary movement scale (AIMS): KINECT 1, tardive dyskinesia patients

SMILES: Cc1nc2n(c(=O)c1CCN1CCC(c3noc4cc(F)ccc34)CC1)CCCC2 [risperidone, reference compound]
- total movement [1]: reduced total movement
- total stereotypic behaviour [1]: reduced total stereotypic behaviour
- locomotor activity when compared to the vehicle-amphetamine group (amphetamine-induced rats; Study 1 conclusions): lower locomotor activity
- stereotypic behaviour when compared to the vehicle-amphetamine group (amphetamine-induced rats; Study 1 conclusions): reduced stereotypic behaviour
- locomotor activity when compared to the vehicle-amphetamine group (amphetamine-induced rats; Study 2 conclusions): lower locomotor activity
- stereotypic behaviour when compared to the vehicle-amphetamine group (amphetamine-induced rats; Study 2 conclusions): reduced stereotypic behaviour

SMILES: COc1cc2c(cc1OC)[C@H]1C[C@@H](OC(=O)[C@@H](N)C(C)C)[C@H](CC(C)C)CN1CC2 [Valbenazine, reference compound]
- symptoms scored with the abnormal involuntary movement scale (AIMS) ([2]; 50 mg/day): did not show any significant signs of improvement
- symptoms scored with the abnormal involuntary movement scale (AIMS) ([2]; 100 mg/day): some reduction of symptoms
- Abnormal Involuntary Movement Score ([2]; KINECT 3, Tardive Dyskinesia sufferers, 80mg/day): significant improvement
